Measured values from patent publication US20230139593A1, “TREATMENT OF DISORDERS ASSOCIATED WITH OXIDATIVE STRESS AND COMPOUNDS FOR SAME” (The University of Adelaide, priority 2020, published 2023).
Counter-ions that a name gives are not always drawn.

Key:
[1] = tested on: NRF2/ARE luciferase reporter HEK293 cells; experiment: Cytotoxicity in the reporter cell assay; format: cell-based
Procedure: (§1) NRF2/ARE responsive luciferase reporter HEK293 cells (Signosis, Santa Clara, USA) were seeded at 1×10^5 cells/well in 48-well plates (Corning, Tewksbury, USA) in supplemented Dulbecco's Modified Eagle Medium (DMEM) containing 4.5 g/L glucose (HyClone, Pittsburgh, USA) (10% fetal bovine serum (FBS) (ThermoFisher Scientific, Waltham, USA) and 1% penicillin/streptomycin (Gibco, Waltham, USA)) and cultured overnight at 37° C., 5% CO2, in a humidified environment. The next morning, the media was replaced with supplemented DMEM (1% FBS (ThermoFisher Scientific) and 1% penicillin/streptomycin (Gibco)). Cells were then treated with a concentration range of each example of compounds described in the invention or monomethyl fumarate (0-100 μM), together with 10 μM hydrogen peroxide (H2O2) (Sigma Aldrich, St Louis, USA), 10 μM peroxynitrite (PN) (Sigma Aldrich), or supplemented media (negative control). tert-Butylhydroquinone (tBHQ; 10 μM) (Sigma-Aldrich) was used as positive control. Each condition was run in triplicate and observations confirmed over at least two additional replications.

[2] = tested on: spared nerve injury (SNI) model of neuropathic pain; experiment: Tactile allodynia (von Frey test) after spared nerve injury; format: in vivo, mice; conditions: for tactile allodynia: 350 μmol/kg oral, daily for 3 days, SNI mice, ipsilateral paw
Procedure: Pathogen-free adult male and female C57BL/6J mice (8 weeks old on arrival; The Jackson Laboratory, Bar Harbor, USA) were used. Mice were housed five per cage in a light- and temperature-controlled room (12:12-h light-dark cycle, light on at 7:00 AM) with food and water available ad libitum. All procedures were approved by the MD Anderson Cancer Center Animal Care and Use Committee. SNI was performed under inhaled isoflurane anesthesia. The tibial and common peroneal nerves were isolated, tightly ligated with 6-0 silk, and transected immediately distal to the ligation. The sural nerve was left intact. Animals were monitored post-operatively until fully ambulatory prior to return to their home cage. Compounds were suspended with methylcellulose (viscosity 15 cP, 2% w/v in water;) and administered by oral gavage. For SNI anti-nociception, compounds were administered for 3 days (350 μmol/kg/day), beginning 7 days after SNI, and continuing for 3 (reflex tests) or 7 days (conditioned place preference tests). For leukopenia assessment, compounds were administered to naïve mice for 10 days (350 μmol/kg/day). Equivolume methylcellulose (2% w/v) was used as vehicle control for all compounds. An independent investigator dosed the mice in order to maintain blinding to treatment groups for the other investigators who performed the behavioral testing. Testing was conducted blind with respect to group assignment. […] Tactile allodynia was measured using the von Frey test. The 50% paw withdrawal threshold was determined using the “up-down” method. Differences between in vitro concentration-response relationships were determined by comparing the slopes of fitted functions for shared parameters. […] Mechanical allodynia was analyzed as the interpolated 50% thresholds (absolute threshold). […] Differences between treatment groups for behavior were determined using repeated measures two-way ANOVA, followed by Tukey's or […] post hoc tests. Biochemical data were analyzed by one- or two-way ANOVA, followed by Tukey's post hoc tests. Results are expressed as mean±standard deviation (SD). […]

[3] = tested on: spared nerve injury (SNI) model of neuropathic pain; experiment: Conditioned place preference assay (spontaneous pain) after spared nerve injury; format: in vivo; conditions: 350 μmol/kg oral, daily for 7 days, nerve-injured mice
Procedure: Pathogen-free adult male and female C57BL/6J mice (8 weeks old on arrival; The Jackson Laboratory, Bar Harbor, USA) were used. Mice were housed five per cage in a light- and temperature-controlled room (12:12-h light-dark cycle, light on at 7:00 AM) with food and water available ad libitum. All procedures were approved by the MD Anderson Cancer Center Animal Care and Use Committee. SNI was performed under inhaled isoflurane anesthesia. The tibial and common peroneal nerves were isolated, tightly ligated with 6-0 silk, and transected immediately distal to the ligation. The sural nerve was left intact. Animals were monitored post-operatively until fully ambulatory prior to return to their home cage. Compounds were suspended with methylcellulose (viscosity 15 cP, 2% w/v in water;) and administered by oral gavage. For SNI anti-nociception, compounds were administered for 3 days (350 μmol/kg/day), beginning 7 days after SNI, and continuing for 3 (reflex tests) or 7 days (conditioned place preference tests). For leukopenia assessment, compounds were administered to naïve mice for 10 days (350 μmol/kg/day). Equivolume methylcellulose (2% w/v) was used as vehicle control for all compounds. An independent investigator dosed the mice in order to maintain blinding to treatment groups for the other investigators who performed the behavioral testing. […] The time spent in the light chamber was recorded. […]

[4] = tested on: NRF2/ARE; experiment: NRF2/ARE responsive luciferase reporter assay in HEK293 cells; format: cell-based; conditions: 16 h; for NRF2 activity in the presence of H2O2 or ONOO− compared to media control: 10 μM H2O2 or 10 μM ONOO−, 0-100 μM compound; for NRF2 activity relative to MMF: 0-100 μM
Procedure: as §1
After 16 h of incubation with examples of compounds described in the invention and ROS/RNS, cells were washed gently with 500 μL PBS (Sigma-Aldrich) and then incubated in 40 μL passive lysis buffer (Promega, Madison, USA) at room temperature. After 20 mins, 30 μL was transferred from each well to a 96-well clear-bottom, white-wall plate (Corning). Luciferase substrate (Signosis; 150 μL) was added to each well and gently mixed. Luminesence was immediately read on a Synergy HTX multi-mode microplate reader (BioTek, Winooski, USA).
Differences between in vitro concentration-response relationships were determined by comparing the slopes of fitted functions for shared parameters. Linear models were selected as the pharmacologically-relevant concentrations tested were within the linear range of the concentration-response functions. Mechanical allodynia was analyzed as the interpolated 50% thresholds (absolute threshold). One-way ANOVA was used to confirm that there were no baseline differences in absolute thresholds or dynamic scores between treatment groups. Differences between treatment groups for behavior were determined using repeated measures two-way ANOVA, followed by Tukey's or Sidaks post hoc tests. Biochemical data were analyzed by one- or two-way ANOVA, followed by Tukey's post hoc tests. Results are expressed as mean±standard deviation (SD). P<0.05 was considered statistically significant.

[5] = tested on: spared nerve injury (SNI) model of neuropathic pain; experiment: Dynamic allodynia (paintbrush stroking) after spared nerve injury; format: in vivo; conditions: 350 μmol/kg oral, daily for 3 days, SNI mice, ipsilateral paw
Procedure: Pathogen-free adult male and female C57BL/6J mice (8 weeks old on arrival; The Jackson Laboratory, Bar Harbor, USA) were used. Mice were housed five per cage in a light- and temperature-controlled room (12:12-h light-dark cycle, light on at 7:00 AM) with food and water available ad libitum. All procedures were approved by the MD Anderson Cancer Center Animal Care and Use Committee. SNI was performed under inhaled isoflurane anesthesia. The tibial and common peroneal nerves were isolated, tightly ligated with 6-0 silk, and transected immediately distal to the ligation. The sural nerve was left intact. Animals were monitored post-operatively until fully ambulatory prior to return to their home cage. […] Dynamic mechanical hypersensitivity was measured by light stroking (velocity is 2 cm/s) of the external lateral side of the injured hind paw in the direction from heel to toe with a paintbrush. The paw withdrawal response was scored according to the following criteria, score=0: walking away or occasionally very brief paw lifting […]; score=1: sustained lifting (>2 s) of the stimulated paw toward the body; score=2: a strong lateral lifting above the level of the body; score=3: flinching or licking of the affected paw. […] Differences between in vitro concentration-response relationships were determined by comparing the slopes of fitted functions for shared parameters. […]

[6] = tested on: leukocytes; experiment: Absolute leukocyte count in naive mice; format: in vivo; conditions: 350 μmol/kg oral, daily for 10 days
Procedure: Compounds were suspended with methylcellulose (viscosity 15 cP, 2% w/v in water;) and administered by oral gavage. For SNI anti-nociception, compounds were administered for 3 days (350 μmol/kg/day), beginning 7 days after SNI, and continuing for 3 (reflex tests) or 7 days (conditioned place preference tests). For leukopenia assessment, compounds were administered to naïve mice for 10 days (350 μmol/kg/day). Equivolume methylcellulose (2% w/v) was used as vehicle control for all compounds. An independent investigator dosed the mice in order to maintain blinding to treatment groups for the other investigators who performed the behavioral testing.
Leukocytes from cardiac blood were stained with Turk's solution according to manufacturer instructions, and manually counted on a hemocytometer by an experimenter who was blinded to treatment conditions.

[7] = measured, Arch Dermatol Res. 2010, 302(7), 531-8; cited from earlier work

## COC(=O)/C=C/C(=O)C(=O)OC [Example A, 1,5-dimethyl (2E)-4-oxopent-2-enedioate]
[1]; 0-100 μM
  toxicity in the concentration range tested: no toxicity in the concentration range tested
[2]; 350 μmol/kg oral each, 3 days, both measures
  efficacy on tactile and dynamic allodynia relative to diroximel fumarate: greater efficacy than diroximel fumarate
[2]
  tactile allodynia: reversed
[3]
  spontaneous pain: preference for the retigabine-paired light chamber: did not develop a preference for the retigabine-paired light chamber
[4]
  NRF2 activity in the presence of H2O2 or ONOO− compared to media control: increased NRF2 activity in the presence of H2O2 or ONOO^−
[5]
  dynamic allodynia: reversed
[6]
  absolute leukocyte count: did not cause a decline in absolute leukocyte count

## COC(=O)/C=C/C(=O)C(=O)NCc1ccccc1 [Example C, methyl (2E)-4-(benzylcarbamoyl)-4-oxobut-2-enoate]
[1]
  cytotoxic concentration: above 50 μM
[4]
  NRF2 activity relative to MMF: activated NRF2 to a greater extent than MMF
  NRF2 activity in the presence of H2O2 or ONOO− compared to media control: did not selectively increase NRF2 activity

## COC(=O)/C=C/C(=O)C(=O)c1ccccc1 [Example D, methyl (2E)-4,5-dioxo-5-phenylpent-2-enoate]
[4]
  NRF2 activity relative to MMF: at lower levels than MMF
  NRF2 activity in the presence of H2O2 or ONOO− compared to media control: increased NRF2 activity in the presence of H2O2 or ONOO^−

## COC(=O)/C=C/C(=O)C(=O)O [Example J, (3E)-5-methoxy-2,5-dioxopent-3-enoic acid]
[2]
  tactile allodynia: reversed
[5]
  dynamic allodynia: reversed

## COC(=O)/C=C/C(=O)O [MMF, monomethyl fumarate]
[7]
  pKa: 3.63

## COC(=O)/C=C/C(=O)OCCN1C(=O)CCC1=O [diroximel fumarate, reference compound]
[3]
  spontaneous pain: preference for the retigabine-paired light chamber: did not develop a preference for the retigabine-paired light chamber
